# Test results as given in ChEMBL document CHEMBL5357036, “Latest developments in coumarin-based anticancer agents: mechanism of action and structure-activity relationship studies” (RSC Med Chem, 2024).
# Experiments:
# [1] = system: HeLa; assay: Growth inhibition of human HeLa cells incubated for 48 hrs by MTT assay; format: functional
# [2] = system: MCF7; assay: Antiproliferative activity against human MCF7 cells assessed as reduction in cell viability incubated for 48 hrs by cell titer-glo assay; format: functional, cell-based; conditions: MCF7, 48 h
# [3] = system: HeLa; assay: Cytotoxicity against human HeLa cells assessed as cell growth inhibition; format: functional, cell-based
# [4] = system: 4T1; assay: Cytotoxicity against mouse 4T1 cells assessed as inhibition of cell proliferation incubated for 72 hrs by MTT assay; format: functional, cell-based; conditions: 4T1, 72 h
# [5] = system: MCF7; assay: Cytotoxicity against human MCF7 cells assessed as inhibition of cell proliferation incubated for 72 hrs by MTT assay; format: functional, cell-based; conditions: MCF7, 72 h
# [6] = system: MCF7; assay: Anticancer activity against human MCF7 cells assessed as inhibition of cell proliferation measured after 72 hrs by MTT assay; format: functional, cell-based; conditions: MCF7, 72 h
# [7] = system: HepG2; assay: Anticancer activity against human HepG2 cells assessed as reduction in cell viability by SRB assay; format: functional, cell-based
# [8] = system: A549; assay: Anticancer activity against human A549 cells assessed as reduction in cell viability by SRB assay; format: functional, cell-based
# [9] = system: DU-145; assay: Anticancer activity against human DU-145 cells assessed as reduction in cell viability by SRB assay; format: functional, cell-based
# [10] = system: MCF7; assay: Anticancer activity against human MCF7 cells assessed as reduction in cell viability by SRB assay; format: functional, cell-based
# [11] = system: MCF7-DOX; assay: Antiproliferative activity against human MCF7-DOX cells assessed as reduction in cell viability by SRB assay; format: functional, cell-based
# [12] = system: SK-OV-3; assay: Antiproliferative activity against human SK-OV-3 cells assessed as reduction in cell growth by SRB assay; format: functional, cell-based
# [13] = Cytotoxicity against rat H4-II-E cells assessed as reduction in cell viability measured after 24 hrs by MTT assay; format: functional, cell-based; conditions: H4IIE
# [14] = system: MCF7; assay: Cytotoxicity against human MCF7 cells assessed as reduction in cell viability incubated for 48 hrs by MTT assay; format: functional, cell-based; conditions: MCF7, 48 h
# [15] = system: SNB-75; assay: Antiproliferative activity against human SNB-75 cells assessed as cell growth inhibition at 10 uM by SRB assay relative to control; format: functional
# [16] = system: MGC-803; assay: Cytotoxicity against human MGC-803 cells assessed as cell growth inhibition incubated for 24 hrs by MTT assay; format: functional, cell-based; conditions: MGC-803, 24 h
# [17] = system: A549; assay: Cytotoxicity against human A549 cells assessed as cell growth inhibition incubated for 24 hrs by MTT assay; format: functional, cell-based; conditions: A549, 24 h
# [18] = system: NCI-H460; assay: Cytotoxicity against human NCI-H460 cells assessed as cell growth inhibition incubated for 24 hrs by MTT assay; format: functional, cell-based; conditions: NCI-H460, 24 h
# [19] = system: HepG2; assay: Antiproliferative activity against human HepG2 cells assessed as cell growth inhibition incubated for 48 hrs by MTT assay; format: functional, cell-based
# [20] = system: PANC-1; assay: Antiproliferative activity against human PANC-1 cells assessed as cell growth inhibition incubated for 48 hrs by MTT assay; format: functional, cell-based; conditions: PANC-1, 48 h
# [21] = system: SGC-7901; assay: Antiproliferative activity against human SGC-7901 cells assessed as cell growth inhibition; format: functional, cell-based
# [22] = Oral bioavailability in Sprague-Dawley rat at 10 mg/kg measured up to 24 hrs by LC-MS/MS analysis; format: ADME, organism-based; conditions: in vivo
# [23] = system: A549 (Homo sapiens); assay: Antiproliferative activity against human A549 cells assessed as cell growth inhibition incubated for 48 hrs by MTT assay; conditions: A549, 48 h
# [24] = system: HeLa; assay: Cytotoxicity against human HeLa cells assessed as growth inhibition measured after 48 hrs by MTT assay; format: functional, cell-based
# [25] = system: HepG2; assay: Antiproliferative activity against human HepG2 cells assessed as reduction in cell viability incubated for 48 hrs by MTT assay; format: functional, cell-based; conditions: HepG2, 48 h
# [26] = system: HepG2; assay: Induction of apoptosis in human HepG2 cells assessed as increase in apoptotic cells at 10 uM by Annexin V-FITC staining based flow cytometry (reference value: 13.76 %); format: functional
# [27] = system: HCT-116; assay: Antiproliferative activity against human HCT-116 cells assessed as reduction in cell viability incubated for 72 hrs by MTT assay; format: functional, cell-based; conditions: HCT-116, 72 h
# [28] = system: HepG2; assay: Cytotoxicity against human HepG2 cells assessed as reduction in cell viability measured after 24 hrs by MTT assay; format: functional, cell-based; conditions: HepG2, 24 h
smiles,measurement,setting,value
O=c1cc(-c2nccc3c2[nH]c2ccccc23)c2cc(Cl)ccc2o1,GI50,[1],23.4 µg/mL
CCN(C)S(=O)(=O)c1ccc(/C(C)=N/NC(=O)c2cc3ccccc3oc2=O)cc1,IC50,[2],2.56 µM
CN(C)c1ccc2c(c1)O/C(=C(/C#N)c1cc[n+](C)cn1)C=C2C(F)(F)F,IC50,[3],1.1 µM
O=C(Cc1cc(=O)oc2cc(O)ccc12)NCCCCCCCCCNc1c2c(nc3ccccc13)CCCC2,IC50,[4],5.7 µM
same,IC50,[5],6 µM
O=C(O)COc1ccc2ccccc2c1/C=C/C(=O)c1cc2c(ccc3ccccc32)oc1=O,IC50,[6],15.4 µM
Cc1cc(=O)oc2cc(OCCOCCN3C(=O)/C(=N/O)c4cc(F)ccc43)ccc12,IC50,[7],10.3 µM
same,IC50,[8],10.9 µM
same,IC50,[9],20.8 µM
same,IC50,[10],11.3 µM
same,IC50,[11],14.5 µM
Cc1cc(=O)oc2cc(OCCOCCN3C(=O)/C(=N/O)c4ccccc43)ccc12,IC50,[12],18.6 µM
O=C(Nc1ccc(/C=C/C(=O)c2cc3ccccc3oc2=O)cc1)Nc1ccc(C(F)(F)F)cc1,IC50,[13],1.62 µM
O=c1oc2ccccc2c2c1nc(-c1ccccn1)c1occc12,IC50,[14],8 µM
COc1cc2c3c(c(=O)oc2cc1OS(=O)(=O)c1ccc(C(F)(F)F)cc1)CCCCC3,inhibition at 10 µM,[15],91.9%
O=c1oc2ccccc2cc1NCc1ccc(Br)cc1,IC50,[16],10.2 µM
same,IC50,[17],8.75 µM
same,IC50,[18],9.25 µM
COc1cc(Cl)ccc1S(=O)(=O)Nc1ccc2oc(=O)ccc2c1,IC50,[19],4.75 µM
same,IC50,[20],7.02 µM
same,IC50,[21],6.39 µM
same,bioavailability,[22],49.4%
same,IC50,[23],4.63 µM
CCCCOc1ccc2cc(C(=O)NNC(=O)c3c(C)oc4nc(NCCC)n(-c5ccc(C)cc5)c(=O)c34)c(=O)oc2c1,IC50,[24],6.47 µM
C/C(=N\Nc1nc(-c2ccccc2)cs1)c1ccc(NS(=O)(=O)c2ccc3oc(=O)ccc3c2)cc1,IC50,[25],3.48 µM
same,Activity,[26],1.75%
CCN(CC)c1ccc2cc(C(=O)/C=C/c3ccc(OC)c(O)c3)c(=O)oc2c1,IC50,[27],3.6 µM
O=C(Nc1ccc(/C=C/C(=O)c2cc3ccccc3oc2=O)cc1)Nc1ccc([N+](=O)[O-])cc1,IC50,[28],2.33 µM
